Earlier results in patent US11555040B2, “Oxepinopyrazole derivatives as inhibitors of P13-kinase activity” (GLAXOSMITHKLINE INTELLECTUAL PROPERTY DEVELOPMENT LIMITED, priority 2017, dated 2023).

Test system: amphetamine-induced psychosis
Conditions: Law et al. 2012

## Cc1ccccc1-n1c(Cn2cnc3c(N)ncnc32)nc2cccc(C)c2c1=O [IC87114]
  efficacy in mouse model of amphetamine-induced psychosis: remarkable efficacy
